Where a name gives a salt, the structure may show the parent alone.
Assays:
[1] = system: differentiated SH-SY5Y cells; assay: Anti-oxidative stress-induced neuronal cell death (AOND) analysis, AlamarBlue cell viability; assay type: cell-based, human
Method: Human neuroblastoma SH-SY5Y cells (ATCC, CRL-2266) were grown in Dulbecco’s modified Eagle’s medium (DMEM) supplemented with 10% fetal bovine serum (HyClone, Thermo Fisher Scientific Inc.), 100 U/ml penicillin, and 100 µg/ml streptomycin at 37°C in 5% CO2. For differentiation, SH-SY5Y cells were seeded at a density of 0.75×10^4 cells per well in 96-well plates (Primaria, BD Falcon) for 1 day, and cultured in the medium containing 10 µM all-trans retinoic acid for additional 5 days.
[…] Then, the cells were exposed to various concentrations of cytotoxins, including oxidative stressors [menadione, 10 to 80 µM for 4 to 6 h; α-naphthoquinone, 12.5 µM for 4 h; 6-hydroxydopamine (6-OHDA), 400 µM for 4 h], protein kinase inhibitor (staurosporine, 25 µM for 6 h) and phosphatase inhibitor (okadaic acid, 1 µM for 6 h), in fresh medium. Cell viability was measured by AlamarBlue assay (Invitrogen) as described previously.

ALS(SOD1^H46R) mice = assay: Post-onset oral administration in ALS(SOD1^H46R) mice: motor function, body weight, survival; assay type: in vivo; details: for balance beam test: duration from onset to the day the mouse was unable to stay on the bar: n = 26, mean ± SEM (vehicle 20.7±0.7); for survival interval after onset: n = 26, mean ± SD (vehicle 36.6±6.2)
Excerpt: Transgenic mice carrying the H46R mutation in the human SOD1 gene; SOD1^H46R were used as a familial ALS mouse model. […] Since the genetic background is one of the important factors modulating disease phenotypes in mutant SOD1 transgenic mice, we first generated a congenic line of ALS(SOD1^H46R) transgenic mice by backcrossing more than 15 generations to B6 mice.
The lines were maintained as hemizygotes by mating ALS(SOD1^H46R) and ALS(SOD1^G93A) males with B6 females. Offspring were genotyped by PCR using genomic DNA from tail tissue. Mice were housed at 23°C with a 12 h light/dark cycle, in which water and food was available ad libitum. The condition of each animal was monitored weekly initially and then daily after disease onset. The lifespan was determined by the days from disease onset to the endpoint, in which mouse lost active and/or spontaneous movement. All animal experimental procedures were approved by the Institutional Animal Care and Use Committee at Tokai University.
WN1316 was dissolved in MQ water, and diluted with physiological saline. ALS(SOD1^H46R) transgenic mice were given WN1316 via gastric tube (CAT.No.4202, Fuchigami) at a dose of either 1 µg, 10 µg or 100 µg/5 ml/kg body weight. ALS(SOD1^G93A) transgenic mice were given 10 µg/kg WN1316. Animals simultaneously treated with physiological saline (vehicle group, 5 ml/kg) were used as controls.
To determine the onset of motor dysfunction in ALS(SOD1^H46R) transgenic mice, we adopted a balance beam test as previously described in detail. To determine the onset of motor dysfunction in ALS(SOD1^G93A) transgenic mice, we adopted both balance beam and grip strength tests. Grip strength test was assessed using a traction meter (BrainScience Idea Co., Ltd.). Each mouse was given three trials, and the highest limb strength score was recorded. For ALS(SOD1^G93A) transgenic mice, grip strength tests were started at 11 weeks of age and performed twice a week until an over 20% reduction compared with the initial limb strength score at 11 weeks of age was observed. Finally, a grade 3 in the balance beam test and over 20% reduction of limb strength score were defined as the sign of the disease onset in ALS(SOD1^G93A) transgenic mice.
The gross phenotypes were measured blindly. The body weight of each mouse was measured weekly initially and then daily after disease onset. Mice were assessed for gross behavior every week from 12 weeks of age in ALS(SOD1^H46R) mice and from 11 weeks of age in ALS(SOD1^G93A) mice until the endpoint. In particular, hind limb movement and rearing behavior of each animal were monitored weekly from 12 weeks of age until the end stage. The days from the disease onset to the endpoint were counted individually as the survival interval.
We assessed motor performance and coordination, and balance in the mice by the balance-beam test, vertical pole test, and footprint analysis as previously described in detail and grip strength test as described above. In brief, the balance-beam test was performed every day after the onset until mice were unable to stay on the bar. Each mouse was given a maximum of five vertical pole trials using the following two criteria; 1) a cutoff of 45cm and 2) the task was terminated when mouse reached the vertical ascending distance of 45 cm. The highest vertical ascending distance was scored. The footprint trial was conducted at 18 and 21 weeks of age in ALS(SOD1^H46R) mice and at 12, 16, and 20 weeks of age in ALS(SOD1^G93A) mice. Grip strength test of ALS(SOD1^H46R) mice was started at 17 weeks of age and performed once a week.
To evaluate the spontaneous motor activities in mice, we conducted cage activity and rearing performance tests by using SUPERMEX with infrared ray sensor monitor (Muromachi Kikai). […]

[2] = Water solubility (stated property); assay type: physicochemical

For `Cc1cc(C)c(N(C)CC(=O)Nc2nc(-c3ccccn3)c[nH]2)c(C)c1` [WN1316, 2-[mesityl(methyl)amino]-N-[4-(pyridin-2-yl)-1H-imidazol-2-yl] acetamide trihydrochloride], the “pre-treatment time required for AOND activity” value ([1]; 6 µM WN1316, then 60 µM menadione 4 h) was greater than 8 h, the “concentration that militates against cytoprotection” value ([1]; 8 h treatment, then 60 µM menadione 4 h) was greater than 20 µM and the “cytoprotection against oxidative stress-induced cell death” value ([1]; compound 24 h, then 60 µM menadione 4 h, compared with mother compound CPN-9) was “marked cytoprotection”. For the same compound, the “selectivity of protection against various cytotoxins” value ([1]; menadione, α-naphthoquinone, 6-OHDA vs staurosporine, okadaic acid, 8 h pretreatment) was “greatest protection against oxidative stress-induced damage”, the “balance beam test: duration from onset to the day the mouse was unable to stay on the bar” value (“balance beam test: duration from onset” below) (ALS(SOD1^H46R) mice; 1 µg/kg/day p.o. post-onset) was 25.6 ± 0.9 days and the “survival interval after onset” value (ALS(SOD1^H46R) mice; 1 µg/kg/day p.o.) was 43.8 ± 5.5 days. For the same compound, the “balance beam test: duration from onset” value (ALS(SOD1^H46R) mice; 10 µg/kg/day p.o. post-onset) was 26.3 ± 0.6 days, the “survival interval after onset” value (ALS(SOD1^H46R) mice; 10 µg/kg/day p.o.) was 43.9 ± 4.4 days and the “balance beam test: duration from onset” value (ALS(SOD1^H46R) mice; 100 µg/kg/day p.o. post-onset) was 28.4 ± 0.8 days. The “survival interval after onset” value (ALS(SOD1^H46R) mice; 100 µg/kg/day p.o.) was 45.9 ± 6.0 days, the “effect on mouse weight” value (ALS(SOD1^H46R) mice; 1, 10, 100 µg/kg/day, 12–24 weeks of age) was “did not affect mouse weight” and the “prolongation of post-onset survival” value (ALS(SOD1^H46R) mice; 1–100 µg/kg/day p.o., vs vehicle) was 20–25%. For the same compound, the “vertical pole climbing and grip strength” value (ALS(SOD1^H46R) mice; 1–100 µg/kg/day, 21–22 weeks of age (late symptomatic stage), vs vehicle) was “significant preservation of motor performance”, the “gait on footprint analysis” value (ALS(SOD1^H46R) mice; 21 weeks of age (late symptomatic stage)) was “short but still steady gait” and the “autopsy findings of organs such as heart and kidney” value (ALS(SOD1^H46R) mice; WN1316-treated mice, data not shown) was “no pathological abnormalities”. The “water solubility (in words)” value [2] was “highly soluble in water”.

— PMC3909264, “A Novel Acylaminoimidazole Derivative, WN1316, Alleviates Disease Progression via Suppression of Glial Inflammation in ALS Mouse Model” (PLoS ONE, 2014)
